As usually defined, the solubility is how much of the substance goes into solution per volume. A lower solubility goes with little dissolved substance.

The source of these data is patent US12497460B2, “Anti-MSR1 antibodies and methods of use thereof” (REGENERON PHARMACEUTICALS, INC., priority 2018, dated 2025).

Values after ≈ are worked out from the molar mass of the structure shown.

This data set is described as follows: Solubility in water of linker-payloads.

Turning to `CCCC1O[C@@H]2C[C@H]3[C@@H]4C[C@H](F)C5=CC(=O)C=C[C@]5(C)[C@@]4(F)[C@@H](O)C[C@]3(C)[C@]2(C(=O)CNC(=O)OCc2ccc(NC(=O)[C@H](CCCNC(N)=O)NC(=O)[C@@H](NC(=O)CCOCCOCCOCCOCCNC(=O)CCC(=O)N3Cc4ccccc4C#Cc4ccccc43)C(C)C)cc2)O1` (stereo partly shown) [LP13], the concentration in solution (solubility) came to 20 µg/mL (≈ 14.2 µM).
